Measured values as given in ChEMBL document CHEMBL4622901, “Vinyl sulfone-based inhibitors of trypanosomal cysteine protease rhodesain with improved antitrypanosomal activities” (Bioorg Med Chem Lett, 2020).

Tests used:
Trypanosoma brucei = assay: Antitrypanosomal activity against Trypanosoma brucei; format: functional, organism-based
[1] = Cytotoxicity against human HepG2 cells assessed as reduction in cell viability; format: cell-based
[2] = Selectivity index, ratio of CC50 for human HepG2 cells to EC50 for Trypanosoma brucei; format: toxicity; conditions: read-out: Ratio CC50/EC50
[3] = molecular target: Rhodesain (Trypanosoma brucei rhodesiense) (UniProt Q95PM0); assay: Inhibition of Trypanosoma brucei rhodesain assessed as Kinact/Ki ratio
[4] = molecular target: Rhodesain (Trypanosoma brucei rhodesiense) (UniProt Q95PM0); assay: Inhibition of Trypanosoma brucei rhodesain at 10 uM measured after 1 hr relative to control

Rhodesain (Trypanosoma brucei rhodesiense), sequence (Q95PM0 1-450): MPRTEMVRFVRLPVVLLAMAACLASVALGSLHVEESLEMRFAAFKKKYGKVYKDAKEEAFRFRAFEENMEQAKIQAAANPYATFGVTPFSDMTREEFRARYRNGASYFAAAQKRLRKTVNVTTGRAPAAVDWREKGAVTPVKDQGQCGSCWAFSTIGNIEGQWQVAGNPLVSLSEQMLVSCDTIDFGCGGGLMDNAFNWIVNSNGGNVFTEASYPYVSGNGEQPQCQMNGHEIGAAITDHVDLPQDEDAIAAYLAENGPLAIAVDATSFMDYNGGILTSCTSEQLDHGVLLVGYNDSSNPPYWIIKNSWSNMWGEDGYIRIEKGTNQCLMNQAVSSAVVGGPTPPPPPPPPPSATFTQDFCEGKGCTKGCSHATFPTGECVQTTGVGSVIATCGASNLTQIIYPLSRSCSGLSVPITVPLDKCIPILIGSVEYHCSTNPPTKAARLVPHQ

SMILES | EC50 (Trypanosoma brucei) [µM] | CC50 [1] [µM] | selectivity ratio [2] | kinact/Ki [3] [M⁻¹ s⁻¹] | inhibition [4] [%]
Cc1ccc(C(=O)Nc2ccc(S(=O)(=O)O)c3cc(S(=O)(=O)O)cc(S(=O)(=O)O)c23)cc1NC(=O)c1cccc(NC(=O)Nc2cccc(C(=O)Nc3cc(C(=O)Nc4ccc(S(=O)(=O)O)c5cc(S(=O)(=O)O)cc(S(=O)(=O)O)c45)ccc3C)c2)c1 [SURAMIN] | 0.004 |  |  |  | 
O=C(N[C@H](/C=C/S(=O)(=O)c1ccccc1)CCc1ccccc1)c1cccc2c1NCCC2 | 6.3 | > 160 | > 25 | 245 | 100
CCCC[C@@H](/C=C/S(=O)(=O)c1ccccc1)NC(=O)c1cccc2cccnc12 | 6.2 | 36.5 | 6.38 | 108 | 96.2
COc1cc([C@@H]2c3cc4c(cc3[C@H](O)[C@H]3COC(=O)[C@H]23)OCO4)cc(OC)c1OC [PODOFILOX] |  | < 0.5 |  |  | 
O=C(N[C@H](/C=C/S(=O)(=O)c1ccccc1)CCc1ccccc1)c1ccc([N+](=O)[O-])o1 | 0.11 | 5.17 | 47 |  | 78.1
CCC[C@@H](/C=C/S(=O)(=O)c1ccccc1)NC(=O)c1cccc2cccnc12 | 9.23 | > 80 | > 8.66 | 82.1 | 93.5
CC(C)C[C@@H](/C=C/S(=O)(=O)c1ccccc1)NC(=O)c1cccc2cccnc12 | 7.98 | 15.1 | 1.89 |  | 
O=C(N[C@H](/C=C/S(=O)(=O)c1ccccc1)CCc1ccccc1)c1cccc2cccnc12 | 5.97 | > 80 | > 13.4 |  | 100
O=C(N[C@H](/C=C/S(=O)(=O)c1ccccc1)Cc1ccccc1)c1cccc2cccnc12 | 11.7 | 25.3 | 2.16 |  | 
Cc1ncn(C)c1C(=O)N[C@H](/C=C/S(=O)(=O)c1ccccc1)CCc1ccccc1 | 19.6 | 34.4 | 1.76 |  | 
O=C(N[C@H](/C=C/S(=O)(=O)c1ccccc1)CCc1ccccc1)c1cccc2nccnc12 | 5.9 | 39.6 | 6.71 | 293 | 99.1
C[C@H]1CC(C)(C)Nc2c(C(=O)N[C@H](/C=C/S(=O)(=O)c3ccccc3)CCc3ccccc3)cccc21 | 3.02 | > 300 | > 99.3 |  | 
O=C(N[C@H](/C=C/S(=O)(=O)c1ccccc1)CCc1ccccc1)[C@@H]1CSCN1 | 6.94 | 77.8 | 11.2 | 161 | 99.3
O=C(Cc1ccccn1)N[C@H](/C=C/S(=O)(=O)c1ccccc1)CCc1ccccc1 | > 20 | 37.9 |  |  | 
CC1=CC(C)(C)Nc2c(C(=O)N[C@H](/C=C/S(=O)(=O)c3ccccc3)CCc3ccccc3)cccc21 | 1.88 | > 300 | > 160 |  | 
Cn1cc([N+](=O)[O-])nc1C(=O)N[C@H](/C=C/S(=O)(=O)c1ccccc1)CCc1ccccc1 | 7.04 | 28.8 | 4.08 | 59 | 91.9
O=C(N[C@H](/C=C/S(=O)(=O)c1ccccc1)CCc1ccccc1)c1ccc([N+](=O)[O-])s1 | 0.69 | 12.4 | 18 |  | 100
O=C(NC/C=C/S(=O)(=O)c1ccccc1)c1cccc2cccnc12 | 14.3 | 55.5 | 3.86 |  | 
